Measured values published in the CheMixHub viscosity set.
Values joined by “and” are separate entries in the source; they are usually repeats but may differ in a detail not shown here. Equal values may be shown once.

Assay: xn = mol fraction of the nth substance listed

ClC(Cl)(Cl)Cl + CO
Details	viscosity [mPa·s]
298 K, 101.3 kPa, x1 = 0.1518	0.719
298 K, 101.3 kPa, x1 = 0.2927	0.809
298 K, 101.3 kPa, x1 = 0.4346	0.844
298 K, 101.3 kPa, x1 = 0.5445	0.874
298 K, 101.3 kPa, x1 = 0.6871	0.875
298 K, 101.3 kPa, x1 = 0.761	0.858
298 K, 101.3 kPa, x1 = 0.8784	0.867
298.15 K, 101 kPa, x2 = 0.0367	0.877
298.15 K, 101 kPa, x2 = 0.0708	0.871
298.15 K, 101 kPa, x2 = 0.0886	0.869
298.15 K, 101 kPa, x2 = 0.1063	0.865
298.15 K, 101 kPa, x2 = 0.2	0.858
298.15 K, 101 kPa, x2 = 0.2104	0.8395
298.15 K, 101 kPa, x2 = 0.2547	0.857
298.15 K, 101 kPa, x2 = 0.35	0.854
298.15 K, 101 kPa, x2 = 0.375	0.8288
298.15 K, 101 kPa, x2 = 0.4226	0.842
298.15 K, 101 kPa, x2 = 0.46	0.846
298.15 K, 101 kPa, x2 = 0.4787	0.839
298.15 K, 101 kPa, x2 = 0.5069	0.8105
298.15 K, 101 kPa, x2 = 0.55	0.831
298.15 K, 101 kPa, x2 = 0.5618	0.815
298.15 K, 101 kPa, x2 = 0.6107	0.807
298.15 K, 101 kPa, x2 = 0.6154	0.7666
298.15 K, 101 kPa, x2 = 0.6934	0.77
298.15 K, 101 kPa, x2 = 0.7057	0.7387
298.15 K, 101 kPa, x2 = 0.76	0.764
298.15 K, 101 kPa, x2 = 0.7826	0.7057
298.15 K, 101 kPa, x2 = 0.7853	0.719
298.15 K, 101 kPa, x2 = 0.83	0.702
298.15 K, 101 kPa, x2 = 0.8483	0.6886
298.15 K, 101 kPa, x2 = 0.88	0.665
298.15 K, 101 kPa, x2 = 0.9029	0.626
298.15 K, 101 kPa, x2 = 0.9057	0.6477
298.15 K, 101 kPa, x2 = 0.9065	0.6438
298.15 K, 101 kPa, x2 = 0.95	0.599
298.15 K, 101 kPa, x2 = 0.9555	0.5806
298.15 K, 101 kPa, x2 = 0.9571	0.5875
298.15 K, 101 kPa, x2 = 0.9616	0.577
298.15 K, 101 kPa, x2 = 0.9788	0.5672
303.15 K, 101 kPa, x1 = 0.0355	0.54
303.15 K, 101 kPa, x1 = 0.1574	0.594
303.15 K, 101 kPa, x1 = 0.2723	0.665
303.15 K, 101 kPa, x1 = 0.4653	0.71
303.15 K, 101 kPa, x1 = 0.6066	0.76
303.15 K, 101 kPa, x1 = 0.7506	0.766
303.15 K, 101 kPa, x1 = 0.901	0.78
303.15 K, 101 kPa, x2 = 0.0396	0.8187
303.15 K, 101 kPa, x2 = 0.0862	0.8054
303.15 K, 101 kPa, x2 = 0.1437	0.7973
303.15 K, 101 kPa, x2 = 0.2352	0.793
303.15 K, 101 kPa, x2 = 0.3077	0.7919
303.15 K, 101 kPa, x2 = 0.4129	0.7852
303.15 K, 101 kPa, x2 = 0.531	0.7677
303.15 K, 101 kPa, x2 = 0.6187	0.7443
303.15 K, 101 kPa, x2 = 0.6838	0.7184
303.15 K, 101 kPa, x2 = 0.824	0.6435
303.15 K, 101 kPa, x2 = 0.8821	0.6038
303.15 K, 101 kPa, x2 = 0.9292	0.5669
303.15 K, 101 kPa, x2 = 0.9728	0.5306
308.15 K, 101 kPa, x2 = 0.0367	0.764
308.15 K, 101 kPa, x2 = 0.0708	0.756
308.15 K, 101 kPa, x2 = 0.0886	0.755
308.15 K, 101 kPa, x2 = 0.1063	0.749
308.15 K, 101 kPa, x2 = 0.2547	0.738
308.15 K, 101 kPa, x2 = 0.4226	0.724
308.15 K, 101 kPa, x2 = 0.4787	0.72
308.15 K, 101 kPa, x2 = 0.5618	0.7
308.15 K, 101 kPa, x2 = 0.6107	0.691
308.15 K, 101 kPa, x2 = 0.6934	0.656
308.15 K, 101 kPa, x2 = 0.7853	0.619
308.15 K, 101 kPa, x2 = 0.9029	0.543
308.15 K, 101 kPa, x2 = 0.9616	0.502
313.15 K, 101 kPa, x1 = 0.0355	0.54
313.15 K, 101 kPa, x1 = 0.1574	0.594
313.15 K, 101 kPa, x1 = 0.2723	0.665
313.15 K, 101 kPa, x1 = 0.4653	0.71
313.15 K, 101 kPa, x1 = 0.6066	0.76
313.15 K, 101 kPa, x1 = 0.7506	0.766
313.15 K, 101 kPa, x1 = 0.901	0.78
313.15 K, 101.33 kPa, x2 = 0.105	0.7595
313.15 K, 101.33 kPa, x2 = 0.193	0.7624
313.15 K, 101.33 kPa, x2 = 0.303	0.75
313.15 K, 101.33 kPa, x2 = 0.35	0.7427
313.15 K, 101.33 kPa, x2 = 0.51	0.6955
313.15 K, 101.33 kPa, x2 = 0.68	0.6248
313.15 K, 101.33 kPa, x2 = 0.72	0.605
313.15 K, 101.33 kPa, x2 = 0.79	0.57
313.15 K, 101.33 kPa, x2 = 0.91	0.505
318 K, 101.3 kPa, x1 = 0.1527	0.5328
318 K, 101.3 kPa, x1 = 0.2949	0.6044
318 K, 101.3 kPa, x1 = 0.4375	0.6446
318 K, 101.3 kPa, x1 = 0.5566	0.6729
318 K, 101.3 kPa, x1 = 0.7077	0.69
318 K, 101.3 kPa, x1 = 0.8931	0.7164
318.15 K, 101 kPa, x2 = 0.0367	0.672
318.15 K, 101 kPa, x2 = 0.0708	0.664
318.15 K, 101 kPa, x2 = 0.0886	0.67
318.15 K, 101 kPa, x2 = 0.1063	0.657
318.15 K, 101 kPa, x2 = 0.2547	0.643
318.15 K, 101 kPa, x2 = 0.4226	0.63
318.15 K, 101 kPa, x2 = 0.4787	0.623
318.15 K, 101 kPa, x2 = 0.5618	0.607
318.15 K, 101 kPa, x2 = 0.6107	0.598
318.15 K, 101 kPa, x2 = 0.6934	0.57
318.15 K, 101 kPa, x2 = 0.7853	0.537
318.15 K, 101 kPa, x2 = 0.9029	0.476
318.15 K, 101 kPa, x2 = 0.9616	0.44
323.15 K, 101 kPa, x1 = 0.0355	0.51
323.15 K, 101 kPa, x1 = 0.1574	0.543
323.15 K, 101 kPa, x1 = 0.2723	0.612
323.15 K, 101 kPa, x1 = 0.4653	0.642
323.15 K, 101 kPa, x1 = 0.6066	0.682
323.15 K, 101 kPa, x1 = 0.7506	0.698
323.15 K, 101 kPa, x1 = 0.901	0.706

[Br-].[Li+] + O
viscosity
Details	293.15 K	298.15 K	303.15 K	308.15 K	313.15 K	318.15 K	323.15 K
100 kPa, x1 = 0.018	–	1.019 mPa·s	0.916 mPa·s	0.832 mPa·s	0.764 mPa·s	0.705 mPa·s	0.656 mPa·s
100 kPa, x1 = 0.035	–	1.161 mPa·s	1.052 mPa·s	0.966 mPa·s	0.888 mPa·s	0.822 mPa·s	0.763 mPa·s
100 kPa, x1 = 0.058	–	1.307 mPa·s	1.185 mPa·s	1.084 mPa·s	0.998 mPa·s	0.922 mPa·s	0.857 mPa·s
100 kPa, x1 = 0.092	–	1.601 mPa·s	1.452 mPa·s	1.327 mPa·s	1.219 mPa·s	1.126 mPa·s	1.045 mPa·s
100 kPa, x1 = 0.129	–	2.164 mPa·s	1.972 mPa·s	1.806 mPa·s	1.662 mPa·s	1.536 mPa·s	1.427 mPa·s
100 kPa, x1 = 0.17	–	3.258 mPa·s	2.945 mPa·s	2.683 mPa·s	2.459 mPa·s	2.263 mPa·s	2.093 mPa·s
100 kPa, x1 = 0.206	–	5.202 mPa·s	4.669 mPa·s	4.221 mPa·s	3.841 mPa·s	3.512 mPa·s	3.225 mPa·s
100 kPa, x1 = 0.246	–	9.066 mPa·s	8.028 mPa·s	7.154 mPa·s	6.41 mPa·s	5.769 mPa·s	5.198 mPa·s
101 kPa, x1 = 0.0109	1.079 mPa·s	–	0.855 mPa·s	–	–	–	0.593 mPa·s
101 kPa, x1 = 0.0353	1.245 mPa·s	–	0.999 mPa·s	–	–	–	0.694 mPa·s
101 kPa, x1 = 0.0649	1.472 mPa·s	–	1.195 mPa·s	–	–	–	0.842 mPa·s
101 kPa, x1 = 0.1	1.8 mPa·s	1.6 mPa·s	1.44 mPa·s	–	1.18 mPa·s	–	–
101 kPa, x1 = 0.101	1.854 mPa·s	–	1.523 mPa·s	–	–	–	1.093 mPa·s
101 kPa, x1 = 0.12	2.11 mPa·s	1.86 mPa·s	1.66 mPa·s	–	1.38 mPa·s	–	–
101 kPa, x1 = 0.131	2.377 mPa·s	–	1.947 mPa·s	–	–	–	1.408 mPa·s
101 kPa, x1 = 0.14	2.35 mPa·s	2.08 mPa·s	1.89 mPa·s	–	1.57 mPa·s	–	–
101 kPa, x1 = 0.15	2.6 mPa·s	2.34 mPa·s	2.09 mPa·s	–	1.72 mPa·s	–	–
101 kPa, x1 = 0.16	3.12 mPa·s	2.79 mPa·s	2.48 mPa·s	–	–	–	–
101 kPa, x1 = 0.1711	3.648 mPa·s	–	2.957 mPa·s	–	–	–	2.093 mPa·s
101 kPa, x1 = 0.19	4.21 mPa·s	3.73 mPa·s	3.34 mPa·s	–	–	–	–
101 kPa, x1 = 0.2	3.54 mPa·s and 5.05 mPa·s	3.1 mPa·s and 4.45 mPa·s	2.77 mPa·s and 3.95 mPa·s	–	–	–	–
101 kPa, x1 = 0.22	–	5.61 mPa·s	5 mPa·s	–	–	–	–
101 kPa, x1 = 0.24	–	7.22 mPa·s	6.36 mPa·s	–	–	–	–
101 kPa, x1 = 0.25	–	9.43 mPa·s	8.1 mPa·s	–	–	–	–
